Source: publication PMC10098121, “Amphipathic barbiturates as marine product mimics with cytolytic and immunogenic effects on head and neck squamous cell carcinoma cell lines” (Frontiers in Pharmacology, 2023)

What follows are compounds tested on cell surface calreticulin on UT-SCC-24A cells (assay: Flow cytometric detection of cell surface calreticulin). Conditions: 24 h, cisplatin 50 µM, MPMs 5-20 µM, vs untreated.
Format: cell-based, human
Protocol: This procedure was based on a published method ([Liu et al., 2020]), but was performed with some modifications. Briefly, HSC-3 and UT-SCC-24A cells were seeded, 300,000 cells/well, in 6-well plates and left to adhere overnight. The media was then removed and replaced by 2 ml complete DMEM/F-12 containing 5, 7.5, 10 or 20 µM of MPM-2:0, MPM-6:0, MPM-3:2 or MPM-4:2, or 50 µM cisplatin. Some cells were left untreated. The cells were then incubated for 24 h. Next, the cell supernatants were collected before the cells were trypsinized and spun down with the supernatants. The cells were then washed in PBS before being incubated with the viability dye Zombie Violet (#423114, BioLegend, San Diego, CA, United States) diluted 1:500 in PBS for 20 min. Next, the cells were incubated with an anti-calreticulin antibody (#ab2907, Abcam) diluted 1:100 in FACS buffer (2%BSA in PBS) for 30 min. The cells were then fixed in 4% formaldehyde for 15 min and washed twice in FACS buffer before being incubated with the secondary antibody (#A11034, Thermo Fisher Scientific) diluted 1:250 in FACS buffer for 30 min. The cells were washed in FACS buffer and analyzed on a LSR Fortessa (BD Biosciences) within 1 week. Analyses were performed in FlowJo™ v.10 (https://www.flowjo.com/).

SMILES	cell surface expression of calreticulin (in words)
N.N.[Cl][Pt][Cl] [Cisplatin, cisplatin, reference compound]	did not induce any cell surface expression of calreticulin
NCCCCCCN1C(=O)N(CCCCCCN)C(=O)C(CCCc2ccccc2)(CCCc2ccccc2)C1=O [MPM-6:0]	statistically significant levels of cell surface calreticulin

These compounds were tested on UT-SCC-24B (assay: High throughput drug screening (CellTiter-Glo, DSS)). Conditions: 72 h, 10-100,000 nM, myogel, non-irradiated.
Format: cell-based, human
Protocol: (§1) The MPMs were screened against a panel of […] different cell lines (HSC-3, UT-SCC-8, UT-SCC-24A, UT-SCC-24B, UT-SCC-42A, UT-SCC-42B and NOF) at the High Throughput Biomedicine Unit (HTB) at the Institute for Molecular Medicine Finland (FIMM). On day 1, black-walled 384-well plates were coated with 5 µl diluted myogel (0.5 mg/ml) per well using an automated reagent dispenser (MultiFlo FX, BioTek, Winooski, VT, United States). On day 2, 500 cells per well were seeded in 20 µl of complete media using the MultiFlo FX (BioTek), and the cells were left to adhere overnight. On day 3, the MPMs, cisplatin, DMSO and Benzethonium chloride were added to the cells using an automatic liquid handler (Echo 550, Labcyte Inc., San Jose, CA, United States). Cisplatin and the MPMs were added to yield five different concentrations in a ten-fold dilution series ranging from 10 to 100,000 nM. Each concentration was tested in triplicate wells. DMSO (0.1%) and benzethonium chloride (100 µM) served as negative and positive control, respectively. Three hours later, some of the plates were irradiated with 2 Gy in a gamma irradiator (OB29/4, STS, Braunschweig, Germany). All plates were taken to the irradiation room to ensure similar handling of the plates. 72 h later, the plates were cooled to room temperature before 25 µl of CellTiter-Glo 2.0 reagent (Promega, Madison, WI, USA) was added to each well using the MultiFlo FX (BioTek). Next, the plates were centrifuged for 5 min at 1,000 rpm before the luminescence signal was measured with the PHERAstar FS HT reader (BMG LABTECH GmbH, Ortenberg, Germany). The raw data was analyzed with the Breeze software (https://breeze.fmm.fi), which normalized the luminescence signal from treated cells against the signal from negative and positive control cells to calculate the percentage of inhibition and generate dose-response curves, which were then used to calculate drug sensitivity scores (DSS). The DSS is a parameter which combines the IC50, the slope of the dose-response curve, and the minimum and maximum responses into a single metric, as previously described ([Yadav et al., 2014]). Quality control was performed by calculation of the Z′-factor, which was >0.7 for all cell lines, indicating high quality of the assay ([Zhang et al., 1999]).

SMILES	drug sensitivity score (DSS)
N.N.[Cl][Pt][Cl] [Cisplatin, cisplatin, reference compound]	11,6
NCCCCCCN1C(=O)N(CCCCCCN)C(=O)C(CCCc2ccccc2)(CCCc2ccccc2)C1=O [MPM-6:0]	18,3

Same assay, conditions: DSS irradiated (2 Gy) minus DSS non-irradiated, >5 synergy, <–5 antagonism

SMILES	delta DSS (ΔDSS)
N.N.[Cl][Pt][Cl] [Cisplatin, cisplatin, reference compound]	0,7
NCCCCCCN1C(=O)N(CCCCCCN)C(=O)C(CCCc2ccccc2)(CCCc2ccccc2)C1=O [MPM-6:0]	0,1

The compounds below were run on HSC-3 in the same assay as above. Conditions: HSC-3, 72 h, 10-100,000 nM, myogel, non-irradiated.
Format: cell-based, human
Protocol: as §1

SMILES	drug sensitivity score (DSS)
N.N.[Cl][Pt][Cl] [Cisplatin, cisplatin, reference compound]	15,6
NCCCCCCN1C(=O)N(CCCCCCN)C(=O)C(CCCc2ccccc2)(CCCc2ccccc2)C1=O [MPM-6:0]	17,8

Same assay, conditions: HSC-3; DSS irradiated (2 Gy) minus DSS non-irradiated; >5 synergy, <–5 antagonism

SMILES	delta DSS (ΔDSS)
N.N.[Cl][Pt][Cl] [Cisplatin, cisplatin, reference compound]	-0,8
NCCCCCCN1C(=O)N(CCCCCCN)C(=O)C(CCCc2ccccc2)(CCCc2ccccc2)C1=O [MPM-6:0]	0,7

Each compound was assayed on UT-SCC-106A in the same assay as above. Conditions: 72 h, 10-100,000 nM, myogel, non-irradiated.
Format: cell-based, human
Protocol: as §1

SMILES	drug sensitivity score (DSS)
N.N.[Cl][Pt][Cl] [Cisplatin, cisplatin, reference compound]	9
NCCCCCCN1C(=O)N(CCCCCCN)C(=O)C(CCCc2ccccc2)(CCCc2ccccc2)C1=O [MPM-6:0]	17,9

Same assay, conditions: DSS irradiated (2 Gy) minus DSS non-irradiated, >5 synergy, <–5 antagonism

SMILES	delta DSS (ΔDSS)
N.N.[Cl][Pt][Cl] [Cisplatin, cisplatin, reference compound]	0,3
NCCCCCCN1C(=O)N(CCCCCCN)C(=O)C(CCCc2ccccc2)(CCCc2ccccc2)C1=O [MPM-6:0]	-0,4

What follows are compounds tested on NOF (normal oral fibroblasts) in the same assay as above. Conditions: 72 h, 10-100,000 nM, myogel, non-irradiated.
Format: cell-based, human
Protocol: as §1

SMILES	drug sensitivity score (DSS)
N.N.[Cl][Pt][Cl] [Cisplatin, cisplatin, reference compound]	9,6
NCCCCCCN1C(=O)N(CCCCCCN)C(=O)C(CCCc2ccccc2)(CCCc2ccccc2)C1=O [MPM-6:0]	18

Same assay, conditions: DSS irradiated (2 Gy) minus DSS non-irradiated, >5 synergy, <–5 antagonism

SMILES	delta DSS (ΔDSS)
N.N.[Cl][Pt][Cl] [Cisplatin, cisplatin, reference compound]	-1,9
NCCCCCCN1C(=O)N(CCCCCCN)C(=O)C(CCCc2ccccc2)(CCCc2ccccc2)C1=O [MPM-6:0]	-0,3

These compounds were tested on UT-SCC-42B in the same assay as above. Conditions: 72 h, 10-100,000 nM, myogel, non-irradiated.
Format: cell-based, human
Protocol: as §1

SMILES	drug sensitivity score (DSS)
N.N.[Cl][Pt][Cl] [Cisplatin, cisplatin, reference compound]	7,7
NCCCCCCN1C(=O)N(CCCCCCN)C(=O)C(CCCc2ccccc2)(CCCc2ccccc2)C1=O [MPM-6:0]	18,4

Same assay, conditions: DSS irradiated (2 Gy) minus DSS non-irradiated, >5 synergy, <–5 antagonism

SMILES	delta DSS (ΔDSS)
N.N.[Cl][Pt][Cl] [Cisplatin, cisplatin, reference compound]	-0,6
NCCCCCCN1C(=O)N(CCCCCCN)C(=O)C(CCCc2ccccc2)(CCCc2ccccc2)C1=O [MPM-6:0]	-0,5

Each compound was assayed on UT-SCC-24A in the same assay as above. Conditions: 72 h, 10-100,000 nM, myogel, non-irradiated.
Format: cell-based, human
Protocol: as §1

SMILES	drug sensitivity score (DSS)
N.N.[Cl][Pt][Cl] [Cisplatin, cisplatin, reference compound]	8,9
NCCCCCCN1C(=O)N(CCCCCCN)C(=O)C(CCCc2ccccc2)(CCCc2ccccc2)C1=O [MPM-6:0]	18,6

Same assay, conditions: DSS irradiated (2 Gy) minus DSS non-irradiated, >5 synergy, <–5 antagonism

SMILES	delta DSS (ΔDSS)
N.N.[Cl][Pt][Cl] [Cisplatin, cisplatin, reference compound]	-0,9
NCCCCCCN1C(=O)N(CCCCCCN)C(=O)C(CCCc2ccccc2)(CCCc2ccccc2)C1=O [MPM-6:0]	-0,2

The compounds below were run on UT-SCC-8 in the same assay as above. Conditions: UT-SCC-8, 72 h, 10-100,000 nM, myogel, non-irradiated.
Format: cell-based, human
Protocol: as §1

SMILES	drug sensitivity score (DSS)
N.N.[Cl][Pt][Cl] [Cisplatin, cisplatin, reference compound]	16,8
NCCCCCCN1C(=O)N(CCCCCCN)C(=O)C(CCCc2ccccc2)(CCCc2ccccc2)C1=O [MPM-6:0]	19,5

Same assay, conditions: UT-SCC-8; DSS irradiated (2 Gy) minus DSS non-irradiated; >5 synergy, <–5 antagonism

SMILES	delta DSS (ΔDSS)
N.N.[Cl][Pt][Cl] [Cisplatin, cisplatin, reference compound]	-0,8
NCCCCCCN1C(=O)N(CCCCCCN)C(=O)C(CCCc2ccccc2)(CCCc2ccccc2)C1=O [MPM-6:0]	-0,8

What follows are compounds tested on UT-SCC-42A in the same assay as above. Conditions: 72 h, 10-100,000 nM, myogel, non-irradiated.
Format: cell-based, human
Protocol: as §1

SMILES	drug sensitivity score (DSS)
N.N.[Cl][Pt][Cl] [Cisplatin, cisplatin, reference compound]	7,1
NCCCCCCN1C(=O)N(CCCCCCN)C(=O)C(CCCc2ccccc2)(CCCc2ccccc2)C1=O [MPM-6:0]	17,9

Same assay, conditions: DSS irradiated (2 Gy) minus DSS non-irradiated, >5 synergy, <–5 antagonism

SMILES	delta DSS (ΔDSS)
N.N.[Cl][Pt][Cl] [Cisplatin, cisplatin, reference compound]	-0,1
NCCCCCCN1C(=O)N(CCCCCCN)C(=O)C(CCCc2ccccc2)(CCCc2ccccc2)C1=O [MPM-6:0]	0,3

The compounds below were run on human red blood cells (assay: Hemolysis assay). Conditions: Homo sapiens, Erythrocyte; 1 h, 37°C; highest concentration tested 500 μM; average of three experiments; read-out: EC50 hemolytic activity against human red blood cells.
Format: cell-based
Protocol: The hemolytic effect of the MPMs was determined using a hemolysis assay as previously described ([Paulsen et al., 2021]). Briefly, hemolysis was determined using a heparinized fraction (10 IU/mL) of freshly drawn blood. The blood collected in ethylenediaminetetraacetic acid-containing test tubes (Vacutest, KIMA, Arzergrande, Italy) was used for the determination of the hematocrit (hct). The heparinized blood was washed 3 × with pre-warmed phosphate-buffered saline (PBS) and adjusted to a final hct of 4%. MPMs in DMSO (50 mM) were added to a 96-well polypropylene V-bottom plate (NUNC, Fisher Scientific, Oslo, Norway) and serially diluted. The test concentration range was 4–500 μM with DMSO contents ≤1%. A solution of 1% triton X-100 was used as a positive control for 100% hemolysis. As a negative control, a solution of 1% DMSO in PBS was included. Red blood cells (1% v/v final concentration) were added to the well plate and incubated at 37°C and 800 rpm for 1 h. After centrifugation (5 min, 3000 g), 100 μL from each well was transferred to a 96-well flat-bottomed microtiter plate, and absorbance was measured at 545 nm with a microplate reader (VersaMaxTM, Molecular Devices, Sunnyvale, CA, United States). The percentage of hemolysis was calculated as the ratio of the absorbance in the MPM treated and surfactant-treated samples, corrected for the PBS background. Three independent experiments were performed, and EC50 values are presented as averages.

SMILES	EC50 [µM]
NCCCCCCN1C(=O)N(CCCCCCN)C(=O)C(CCCc2ccccc2)(CCCc2ccccc2)C1=O [MPM-6:0]	92

Same assay, conditions: test range 4–500 μM

SMILES	hemolytic activity against red blood cells (in words)
NCCCCCCN1C(=O)N(CCCCCCN)C(=O)C(CCCc2ccccc2)(CCCc2ccccc2)C1=O [MPM-6:0]	the most hemolytic compound
